Conditions: Coaxial cylinder method

CCC [propane]
thermal conductivity [W/m/K]
Conditions | 367.32 K | 368.46 K
2968 kPa, Gas | – | 0.03214
2972 kPa, Gas | – | 0.03214
2978 kPa, Gas | – | 0.03213
3000 kPa, Gas | – | 0.03223
3030 kPa, Gas | – | 0.03238
3100 kPa, Gas | – | 0.03275
3150 kPa, Gas | – | 0.03302
3200 kPa, Gas | – | 0.03331
3250 kPa, Gas | – | 0.0336
3300 kPa, Gas | – | 0.03395
3350 kPa, Gas | – | 0.03428
3400 kPa, Gas | – | 0.03471
3500 kPa, Gas | – | 0.03552
3575 kPa, Gas | – | 0.03626
3650 kPa, Gas | – | 0.03704
3700 kPa, Gas | – | 0.03759
3720 kPa, Gas | – | 0.03785
3730 kPa, Gas | – | 0.03799
3740 kPa, Gas | – | 0.0381
3750 kPa, Gas | – | 0.03825
3755 kPa, Gas | – | 0.03832
3765 kPa, Gas | – | 0.03844
3775 kPa, Gas | – | 0.03858
3785 kPa, Gas | – | 0.03873
3790 kPa, Gas | – | 0.03878
3800 kPa, Gas | – | 0.03892
3850 kPa, Gas | – | 0.03974
3900 kPa, Gas | – | 0.04073
3950 kPa, Gas | – | 0.04194
4000 kPa, Gas | – | 0.04351
4038 kPa, Gas | – | 0.04518
4060 kPa, Gas | – | 0.04654
4066 kPa, Liquid | 0.1808 | –
4067 kPa, Liquid | 0.1761 | –
4068 kPa, Liquid | 0.1712 | –
4069 kPa, Liquid | 0.1669 | –
4070 kPa, Liquid | 0.1627 | –
4071 kPa, Liquid | 0.1586 | –
4072 kPa, Liquid | 0.1546 | –
4073 kPa, Liquid | 0.1511 | –
4074 kPa, Liquid | 0.1475 | –
4075 kPa, Liquid | 0.1439 | –
4076 kPa, Liquid | 0.1405 | –
4077 kPa, Liquid | 0.1378 | –
4078 kPa, Liquid | 0.1345 | –
4079 kPa, Liquid | 0.1317 | –
4080 kPa, Gas | – | 0.04809
4080 kPa, Liquid | 0.129 | –
4081 kPa, Liquid | 0.127 | –
4082 kPa, Liquid | 0.1249 | –
4083 kPa, Liquid | 0.123 | –
4084 kPa, Liquid | 0.121 | –
4085 kPa, Liquid | 0.1189 | –
4086 kPa, Liquid | 0.1166 | –
4087 kPa, Liquid | 0.115 | –
4088 kPa, Liquid | 0.1136 | –
4089 kPa, Liquid | 0.1118 | –
4090 kPa, Liquid | 0.1105 | –
4091 kPa, Liquid | 0.109 | –
4092 kPa, Liquid | 0.1085 | –
4093 kPa, Liquid | 0.1068 | –
4094 kPa, Liquid | 0.1051 | –
4095 kPa, Liquid | 0.1042 | –
4096 kPa, Gas | – | 0.04969
4096 kPa, Liquid | 0.1034 | –
4097 kPa, Liquid | 0.1027 | –
4098 kPa, Liquid | 0.1021 | –
4099 kPa, Gas | – | 0.05013
4099 kPa, Liquid | 0.1016 | –
4100 kPa, Liquid | 0.1007 | –
4101 kPa, Liquid | 0.09965 | –
4102 kPa, Gas | – | 0.0505
4102 kPa, Liquid | 0.09856 | –
4103 kPa, Liquid | 0.09755 | –
4104 kPa, Gas | – | 0.05078
4104 kPa, Liquid | 0.09655 | –
4105 kPa, Liquid | 0.09562 | –
4106 kPa, Gas | – | 0.05104
4106 kPa, Liquid | 0.0947 | –
4107 kPa, Liquid | 0.0938 | –
4108 kPa, Liquid | 0.09296 | –
4109 kPa, Liquid | 0.09214 | –
4110 kPa, Liquid | 0.09124 | –
4112 kPa, Gas | – | 0.05196
4112 kPa, Liquid | 0.08967 | –
4114 kPa, Gas | – | 0.05236
4114 kPa, Liquid | 0.0892 | –
4115 kPa, Gas | – | 0.0525
4116 kPa, Gas | – | 0.0527
4116 kPa, Liquid | 0.08674 | –
4117 kPa, Gas | – | 0.05291
4118 kPa, Gas | – | 0.05307
4118 kPa, Liquid | 0.08545 | –
4119 kPa, Gas | – | 0.05335
4120 kPa, Gas | – | 0.05349
4120 kPa, Liquid | 0.08412 | –
4121 kPa, Gas | – | 0.05378
4122 kPa, Gas | – | 0.05392
4122 kPa, Liquid | 0.08294 | –
4123 kPa, Gas | – | 0.05418
4124 kPa, Gas | – | 0.0565
4124 kPa, Liquid | 0.08176 | –
4125 kPa, Gas | – | 0.0589
4126 kPa, Gas | – | 0.06178
4126 kPa, Liquid | 0.08067 | –
4127 kPa, Gas | – | 0.06494
4128 kPa, Gas | – | 0.06863
4128 kPa, Liquid | 0.07964 | –
4129 kPa, Gas | – | 0.07284
4130 kPa, Gas | – | 0.07749
4130 kPa, Liquid | 0.07867 | –
4131 kPa, Gas | – | 0.08276
4132 kPa, Gas | – | 0.08878
4132 kPa, Liquid | 0.07775 | –
4133 kPa, Gas | – | 0.09573
4134 kPa, Gas | – | 0.1033
4134 kPa, Liquid | 0.07688 | –
4135 kPa, Gas | – | 0.1122
4136 kPa, Gas | – | 0.1221
4136 kPa, Liquid | 0.07609 | –
4137 kPa, Gas | – | 0.1337
4138 kPa, Gas | – | 0.1478
4138 kPa, Liquid | 0.07523 | –
4139 kPa, Gas | – | 0.1619
4140 kPa, Gas | – | 0.1793
4140 kPa, Liquid | 0.07455 | –
4141 kPa, Gas | – | 0.2022
4142 kPa, Gas | – | 0.214
4142 kPa, Liquid | 0.0738 | –
4143 kPa, Gas | – | 0.2272
4144 kPa, Gas | – | 0.241
4144 kPa, Liquid | 0.07315 | –
4145 kPa, Liquid | – | 0.2612
4146 kPa, Liquid | 0.0725 | 0.2405
4147 kPa, Liquid | – | 0.2228
4148 kPa, Liquid | 0.07187 | 0.2065
4149 kPa, Liquid | – | 0.1933
4150 kPa, Liquid | 0.07132 | 0.1809
4151 kPa, Liquid | – | 0.1745
4152 kPa, Liquid | 0.07076 | 0.1686
4153 kPa, Liquid | – | 0.164
4154 kPa, Liquid | 0.07028 | 0.1581
4155 kPa, Liquid | – | 0.1533
4156 kPa, Liquid | 0.06982 | 0.1489
4157 kPa, Liquid | – | 0.1449
4158 kPa, Liquid | – | 0.141
4159 kPa, Liquid | – | 0.1373
4160 kPa, Liquid | 0.06894 | 0.1338
4161 kPa, Liquid | – | 0.1305
4162 kPa, Liquid | 0.06852 | 0.1273
4163 kPa, Liquid | – | 0.1243
4164 kPa, Liquid | 0.06814 | 0.1214
4165 kPa, Liquid | – | 0.12
4166 kPa, Liquid | 0.06773 | –
4168 kPa, Liquid | 0.0674 | –
4170 kPa, Liquid | 0.06707 | –
4172 kPa, Liquid | 0.06674 | –
4174 kPa, Liquid | 0.06646 | –
4176 kPa, Liquid | 0.0662 | –
4178 kPa, Liquid | 0.06599 | –
4180 kPa, Liquid | 0.06574 | –
4182 kPa, Liquid | 0.06551 | –
4184 kPa, Liquid | 0.0653 | –
4186 kPa, Liquid | 0.06509 | –
4188 kPa, Liquid | 0.0649 | –
4190 kPa, Liquid | 0.06474 | –
4192 kPa, Liquid | 0.0647 | –
4194 kPa, Liquid | 0.06462 | –
4196 kPa, Liquid | 0.06458 | –
4198 kPa, Liquid | 0.06458 | –
4200 kPa, Liquid | 0.06456 | –
4202 kPa, Liquid | 0.06454 | –
4204 kPa, Liquid | 0.06452 | –
4206 kPa, Liquid | 0.0645 | –
4208 kPa, Liquid | 0.06448 | –
4210 kPa, Liquid | 0.06446 | –
4212 kPa, Liquid | 0.06444 | –
4214 kPa, Liquid | 0.06445 | –
4216 kPa, Liquid | 0.06443 | –
4218 kPa, Liquid | 0.06443 | –
4220 kPa, Liquid | 0.06439 | –
4222 kPa, Liquid | 0.06437 | –
4224 kPa, Liquid | 0.06435 | –
4226 kPa, Liquid | 0.06433 | –
4228 kPa, Liquid | 0.06435 | –
4230 kPa, Liquid | 0.06433 | –
4232 kPa, Liquid | 0.06431 | –
4234 kPa, Liquid | 0.06432 | –
4236 kPa, Liquid | 0.06432 | –
4238 kPa, Liquid | 0.0643 | –
4240 kPa, Liquid | 0.06428 | –
4250 kPa, Liquid | 0.06424 | –
4260 kPa, Liquid | 0.0642 | –
4270 kPa, Liquid | 0.06416 | –
4280 kPa, Liquid | 0.06413 | –
4290 kPa, Liquid | 0.06409 | –
4300 kPa, Liquid | 0.06407 | –
4350 kPa, Liquid | 0.06399 | –
4400 kPa, Liquid | 0.06399 | –
4450 kPa, Liquid | 0.06405 | –
4500 kPa, Liquid | 0.06413 | –
4550 kPa, Liquid | 0.06426 | –
4600 kPa, Liquid | 0.0644 | –
4650 kPa, Liquid | 0.06452 | –
4700 kPa, Liquid | 0.06466 | –
4770 kPa, Liquid | 0.06483 | –
4800 kPa, Liquid | 0.06498 | –
4850 kPa, Liquid | 0.06516 | –
4900 kPa, Liquid | 0.06532 | –
4950 kPa, Liquid | 0.06554 | –
4976 kPa, Liquid | 0.06564 | –
5077 kPa, Liquid | 0.06597 | –
